The structures appear in SMILES notation. The source made the active and inactive calls.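 How the source made its calls: active means half-maximal concentration for the rise in caspase light signal at or below ten times the top tested dose; inconclusive means flat fit between 30% and 70% activity, or unreliable curve fit; inactive means the rest.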

The subject of the experiment is MEF A1-2A-BIM cells, caspase 3/7 luminescence, 3 h. Nature of the experiment: caspase activation in A1-2A-BIM MEF cells, dose response, A1 inhibitor project, cell-based, luminescence, retest (AID 2765).

What is called EC50 is the concentration needed to bring the measured effect to its halfway point. Consider `CCOc1ccccc1NC(=O)Nc1cc(OC)ccc1OC`, for which the EC50 is > 35 µM (inactive).

For `CN(C)c1ccc(S(=O)(=O)N(C)C)cc1[N+](=O)[O-]`, the EC50 was > 35 µM (inactive). Turning to `O=C(Nc1ccccc1N1CCCC1)C1CCN(S(=O)(=O)c2ccc(F)cc2)CC1`, the EC50 is > 35 µM (inactive). On to `CONC(=O)c1cc(OCC(F)(F)F)ccc1OCC(F)(F)F`, for which the EC50 is > 35 µM (inactive). For the compound `O=C(Nc1cc(Cl)ccc1N1CCOCC1)c1cccnc1`, the EC50 is > 35 µM (inactive).

With `COc1ccccc1CC(=O)N1CCOCC1`, the EC50 is > 35 µM (inactive).

For `O=C(C1=C[C@H](c2coc3ccccc3c2=O)C[C@H](OCc2ccc(CO)cc2)O1)N1CCN(Cc2ccccc2)CC1`, the EC50 is > 35 µM (inactive). `O=C(NCNC(=O)NC1C(=O)NC(=O)N1CO)NC1C(=O)NC(=O)N1CO` (stereo unspecified): the EC50 is > 35 µM (inactive). On to `O=C(c1ccco1)N1CCN(C(=O)c2cc(-c3ccccn3)nc3ccc(Cl)cc23)CC1`, for which the EC50 was > 35 µM (inactive). `CN(CC(=O)Nc1ccccc1Cl)CC(=O)Nc1cccc2ccccc12`: the EC50 is > 35 µM (inactive). For the compound `C=C1C(=O)O[C@@H]2C[C@@H](C)[C@@H]3C=CC(=O)[C@@]3(C)[C@@H](OC(C)=O)[C@H]12`, the EC50 was > 35 µM (inactive). On to `CCS(=O)(=O)c1ncc(Cl)c(C(=O)Nc2ccc(S(=O)(=O)N(C)c3ccccc3)cc2)n1`, for which the EC50 is > 35 µM (inactive).

On to `CC(C)=C1C2C=CC1C1C(=O)N(c3ccc4c(c3)OCO4)C(=O)C21` (stereo unspecified), for which the EC50 was > 35 µM (inactive). For the compound `O=[N+]([O-])c1ccc(CP(=O)(c2ccccc2)c2ccccc2)cc1`, the EC50 was > 35 µM (inactive). Consider `CC(Oc1ccc(-c2nccc(-c3ccccn3)n2)cc1)C(=O)NN` (stereo unspecified), for which the EC50 was > 35 µM (inactive). As for `CC(=O)c1ccc(NC(=O)CO/N=C(\C)c2cccs2)cc1`, the figure is > 35 µM (inactive). The value for `Cc1ccc(NC(=O)CCN2CC(C)OC(C)C2)cc1C` (stereo unspecified) was > 35 µM (inactive). For the compound `CSc1ccc(C(c2c(C)[nH][nH]c2=O)c2c(C)[nH][nH]c2=O)cc1`, the EC50 was > 35 µM (inactive). In the case of `CCOCCCNC(=O)C1(O)c2cc(Br)ccc2NC(=O)N1c1ccc(CC)cc1` (stereo unspecified), the EC50 was > 35 µM (inactive). The value for `Cc1cccc(NC(=S)NC2CCCC2)c1C` was > 35 µM (inactive); that for `O=C(O)CCN1CCc2ccccc2C1c1ccncc1` (stereo unspecified) was > 35 µM (inactive).

As for `S=C(NCCc1ccccc1)NC1CCCCCC1`, the EC50 was > 35 µM (inactive). With `Cc1cc(Br)c2c(c1)C1(OCCO1)C(=O)N2`, the EC50 was > 35 µM (inactive). Turning to `COc1cccc(/C=N/NC(=O)c2cc3cc([N+](=O)[O-])ccc3s2)c1O`, the EC50 was > 35 µM (inactive). The value for `COCCCNC(=O)c1cccc(S(=O)(=O)N2CC3(C)CC2CC(C)(C)C3)c1` (stereo unspecified) was > 35 µM (inactive). In the case of `Cc1c(C(=O)O)sc2nc(-c3cccs3)cc(C(F)(F)F)c12`, the EC50 was > 35 µM (inactive). As for `C#CC(=O)N(c1cc(OC)ccc1OC)C(C(=O)NC1CCCC1)c1cccs1` (stereo unspecified), the figure is > 35 µM (inactive); as for `CC(O)[C@H](NC(=O)C1(c2ccccc2)CCN(C(=O)OC(C)(C)C)CC1)C(=O)O` (stereo partly specified), > 35 µM (inactive). Regarding `CN(c1ccc(OCC(=O)NC2CCC(O)CC2)cc1)S(=O)(=O)c1ccc(Cl)cc1` (stereo unspecified), the EC50 is > 35 µM (inactive). On to `COc1cc(NC(=O)c2nn(C)c3c2CS(=O)(=O)c2ccccc2-3)cc(OC)c1`, for which the EC50 was > 35 µM (inactive). The value for `CC(=O)OCCCNc1cc(Sc2nc3ccccc3s2)c2nonc2c1[N+](=O)[O-]` was > 35 µM (inactive); that for `CCOC(=O)/C(=C\c1ccc(OC)c(OC)c1)C(=O)c1cccnc1` was > 35 µM (inactive). With `O=C(CN(c1ccc(Br)cc1)S(=O)(=O)c1ccc(Cl)c([N+](=O)[O-])c1)NCCc1ccccc1`, the EC50 is > 35 µM (inactive). With `Cc1ccc(NC(=O)CSc2nc3nc(C)c(Br)cc3[nH]2)cc1F`, the EC50 was > 35 µM (inactive). Regarding `O=c1c(O[C@@H]2O[C@H](CO)[C@@H](O)[C@H](O)[C@H]2O)c(-c2ccc(O)cc2)oc2cc(O)cc(O)c12`, the EC50 is > 35 µM (inactive). Take `COC(=O)Cn1cc(C(=O)C2CC2)c2ccccc21`: the EC50 is > 35 µM (inactive).

As for `O=C(NCCc1ccccc1)C1CCCN1C(=O)Nc1ccc(F)cc1` (stereo unspecified), the EC50 is > 35 µM (inactive). As to `O=C(NCCCNc1ccc(C(F)(F)F)cc1[N+](=O)[O-])c1ccc(F)cc1`, the EC50 is > 35 µM (inactive). Take `CC(C)(C)[C@H](N)C(=O)N[C@H]1CCC2C3CC=C4C[C@@H](O)CC[C@]4(C)C3CC[C@@]21C` (stereo partly specified): the EC50 was > 35 µM (inactive). As for `Cn1cnnc1SCC(=O)Nc1ccc(F)cc1`, the figure is > 35 µM (inactive); as for `CSc1nnc(-c2cc3c(-c4ccccc4)nn(C)c3s2)n1C`, > 35 µM (inactive).

With `CCCOC(=O)Nc1ccc([As](=O)(O)O)cc1NC(=O)OCCC`, the EC50 was > 35 µM (inactive). `N#CCn1nnc(-c2ccc3c(c2)OCO3)n1`: the EC50 was > 35 µM (inactive). As to `O=C(CCCCCn1c(=O)[nH]c2ccsc2c1=O)N1CCN(C2CCCCC2)CC1`, the EC50 was > 35 µM (inactive).

Turning to `CSCCC(NS(=O)(=O)c1ccc(C)cc1)C(=O)NCCc1c[nH]c2ccccc12` (stereo unspecified), the EC50 is > 35 µM (inactive).

With `CCCN1C(=O)C(=O)c2cc(C)ccc21`, the EC50 is > 35 µM (inactive).

In the case of `CCc1ccc(CN/C=C/C(=O)c2ccc(Br)cc2)cc1`, the EC50 is > 35 µM (inactive). `O=C(COc1ccc(Cl)cc1)NCc1nnc(SCC(=O)Nc2ccccc2F)o1`: the EC50 was > 35 µM (inactive). `CCN(CC)CCCNC(=S)N1CCC(c2nc3ccccc3[nH]2)CC1`: the EC50 was > 35 µM (inactive).

For the compound `OCc1ccc(OCCCOc2cccc3cccnc23)cc1`, the EC50 is > 35 µM (inactive).

On to `Cc1c(C(=O)NCCN2C(=O)S/C(=C\c3cccs3)C2=O)cccc1[N+](=O)[O-]`, for which the EC50 is > 35 µM (inactive). Consider `CC[C@H]1CN2CCc3cc(OC)c(OC)cc3[C@@H]2C[C@@H]1C[C@H]1NCCc2cc(OC)c(OC)cc21`, for which the EC50 is > 35 µM (inactive).

Turning to `CC(=O)Nc1ccc(NC(=O)C(=O)NCC(c2ccco2)N2CCc3ccccc32)cc1` (stereo unspecified), the EC50 is 32.5 µM. On to `CC(=O)[C@]1(O)Cc2c(O)c3c(c(O)c2[C@@H](O[C@H]2C[C@H](N)[C@H](O)[C@H](C)O2)C1)C(=O)c1ccccc1C3=O`, for which the EC50 is > 35 µM (inactive).

For `Nc1cn(C2OC(CO)C(O)C2O)c(=O)[nH]c1=O` (stereo unspecified), the EC50 was > 35 µM (inactive). The value for `N#C/C(=C\c1ccc(OCc2ccccc2)cc1)C(=O)Nc1nc2c(s1)CCN(Cc1ccccc1)C2` was > 35 µM (inactive); that for `CC(C)(C)C#CC(CCc1ccccc1)OS(N)(=O)=O` (stereo unspecified) was > 35 µM (inactive). Regarding `O=C(COC(=O)c1ccccc1Br)NC1CCCCCCC1`, the EC50 is > 35 µM (inactive). `Cc1cc(C)cc(N=Cc2c(O)c3ccccc3oc2=O)c1`: the EC50 was > 35 µM (inactive). Turning to `COc1ccc2sc(N(CCCN(C)C)C(=O)c3ccc(S(=O)(=O)N4CCc5ccccc5C4)cc3)nc2c1`, the EC50 is 29.5 µM. Regarding `CC(C)CN(CC(C)C)C(=O)c1cc2c(=O)n3ccccc3nc2s1`, the EC50 was > 35 µM (inactive). As for `Cc1ccc(C)c(NC(=S)NC(NC(=O)Cc2cccc3ccccc23)C(Cl)(Cl)Cl)c1` (stereo unspecified), the figure is 5.84 µM; as for `Cc1cc(N2C(=O)CCC2=O)n(-c2ccccc2)n1`, > 35 µM (inactive); as for `CCOC(=O)c1cc(/C(C)=N/OC(=O)c2ccc(C(C)(C)C)cc2)on1`, > 35 µM (inactive). The value for `Cc1noc(NS(=O)(=O)c2ccc(NC(=O)c3ccccc3NS(=O)(=O)c3ccc(F)cc3)cc2)c1C` was > 35 µM (inactive); that for `COc1cc(/C=C(/C#N)c2nc3ccccc3[nH]2)ccc1OCC(=O)Nc1ccccc1C` was 4.3 µM; that for `CC(=O)OC(C)(C)/C=C/C(=O)C(C)(O)C1[C@H](O)C[C@@]2(C)C3CC=C4C(CC[C@@H](O)C4(C)C)[C@]3(CO)C(=O)C[C@]12C` (stereo partly specified) was > 35 µM (inactive). `CCn1nnc(NC(=O)Cc2ccc(Cl)cc2)n1`: the EC50 was > 35 µM (inactive).

For `CCCNC(=O)C(Cc1ccccc1)NC(=O)Cc1ccccc1` (stereo unspecified), the EC50 was > 35 µM (inactive). As for `CCOc1ccccc1/C=C/c1nc2ccccc2[nH]c1=O`, the figure is > 35 µM (inactive); as for `COc1ccc(-c2nc(CN3CCN(C(=O)c4ccco4)CC3)c(C)o2)cc1OC`, > 35 µM (inactive).

The values are drawn from PubChem BioAssay AID2765 (Broad Institute, 2010).
